# In ChEMBL document CHEMBL3885861, “Open TG-GATES”:
# Species on record: Rattus norvegicus
# Experiment: Open TG-GATES - Regimen: Daily Repeat
# Type: toxicity, organism-based, Sprague-Dawley
# Set-up: regimen Daily Repeat, gender Male, age 6 weeks
# Settings: in vivo, po, route gavage; for APTT / Bas / Eos / Fbg / Hb / Ht / Lym / MCH / MCHC / MCV / Mono / Neu / PT / Plat / RBC / Ret / WBC: tissue Blood; for KIDNEY_TOTAL: tissue Kidney; for LIVER: tissue Liver; for A/G / ALP / ALT / AST / BUN / CRE / Ca / Cl / DBIL / GLC / IP / K / LDH / Na / PL / RALB / TBIL / TC / TG / TP / gamma-GTP: tissue Plasma
# [1] = 20 mg/kg, 72 h, dose level Middle, time 3 day
# [2] = 20 mg/kg, […], dose level Middle, time 7 day
# [3] = 20 mg/kg, […], dose level Middle, time 14 day
# [4] = 20 mg/kg, […], dose level Middle, time 28 day
# [5] = 100 mg/kg, 72 h, dose level High, time 3 day
# [6] = 100 mg/kg, […], dose level High, time 7 day
# [7] = 100 mg/kg, […], dose level High, time 14 day
# [8] = 100 mg/kg, […], dose level High, time 28 day
structure (smiles),measurement,setting,value
CN(CCOc1ccc(CC2SC(=O)NC2=O)cc1)c1ccccn1.O=C(O)/C=C\C(=O)O (stereo not drawn) [ROSIGLITAZONE MALEATE],TERMINAL_BW,[1],255.1 g
same,APTT,[1],16.4 s
same,Bas,[1],0%
same,Eos,[1],0.8%
same,Fbg,[1],231.2 mg/dL
same,Hb,[1],12.7 g/dL
same,Ht,[1],38.6%
same,Lym,[1],75.2%
same,MCH,[1],21 pg
same,MCHC,[1],32.8%
same,MCV,[1],64 fL
same,Mono,[1],8%
same,Neu,[1],16.6%
same,PT,[1],11.7 s
same,Plat,[1],136.2 x10_4/uL
same,RBC,[1],603.2 x10_4/ul
same,Ret,[1],7%
same,WBC,[1],83.2 x10_2/uL
same,KIDNEY_TOTAL,[1],0.7 g
same,LIVER,[1],12.7 g
same,A/G,[1],2.3
same,ALP,[1],1378.6 IU/L
same,ALT,[1],38.8 IU/L
same,AST,[1],67.8 IU/L
same,BUN,[1],16.4 mg/dL
same,CRE,[1],0.2 mg/dL
same,Ca,[1],11.7 mg/dL
same,Cl,[1],103.6 meq/L
same,DBIL,[1],0.012 mg/dL
same,GLC,[1],187.4 mg/dL
same,IP,[1],7.6 mg/dL
same,K,[1],4.3 meq/L
same,LDH,[1],93.4 IU/L
same,Na,[1],140 meq/L
same,PL,[1],147.4 mg/dL
same,RALB,[1],3.9 g/dL
same,TBIL,[1],0.04 mg/dL
same,TC,[1],80.4 mg/dL
same,TG,[1],79.6 mg/dL
same,TP,[1],5.6 g/dL
same,gamma-GTP,[1],0 IU/L
same,TERMINAL_BW,[2],281.6 g
same,TERMINAL_BW,[3],355.9 g
same,TERMINAL_BW,[4],432 g
same,APTT,[2],15.7 s
same,Bas,[2],0%
same,Eos,[2],0.8%
same,Fbg,[2],225.6 mg/dL
same,Hb,[2],12.6 g/dL
same,Ht,[2],38.6%
same,Lym,[2],76%
same,MCH,[2],20.7 pg
same,MCHC,[2],32.5%
same,MCV,[2],63.5 fL
same,Mono,[2],6%
same,Neu,[2],17.4%
same,PT,[2],11.9 s
same,Plat,[2],123 x10_4/uL
same,RBC,[2],608.4 x10_4/ul
same,Ret,[2],6.5%
same,WBC,[2],87.6 x10_2/uL
same,APTT,[3],15.9 s
same,Bas,[3],0%
same,Eos,[3],0.8%
same,Fbg,[3],240.4 mg/dL
same,Hb,[3],13 g/dL
same,Ht,[3],39.7%
same,Lym,[3],79.8%
same,MCH,[3],20.7 pg
same,MCHC,[3],32.8%
same,MCV,[3],63 fL
same,Mono,[3],6%
same,Neu,[3],13.6%
same,PT,[3],11.6 s
same,Plat,[3],110.8 x10_4/uL
same,RBC,[3],631.8 x10_4/ul
same,Ret,[3],3.7%
same,WBC,[3],108.6 x10_2/uL
same,APTT,[4],15.9 s
same,Bas,[4],0%
same,Eos,[4],1%
same,Fbg,[4],252.2 mg/dL
same,Hb,[4],13.9 g/dL
same,Ht,[4],42.4%
same,Lym,[4],81.8%
same,MCH,[4],19.2 pg
same,MCHC,[4],32.8%
same,MCV,[4],58.6 fL
same,Mono,[4],6%
same,Neu,[4],11%
same,PT,[4],11.9 s
same,Plat,[4],110 x10_4/uL
same,RBC,[4],725 x10_4/ul
same,Ret,[4],2.6%
same,WBC,[4],105 x10_2/uL
same,KIDNEY_TOTAL,[2],0.8 g
same,KIDNEY_TOTAL,[3],0.8 g
same,KIDNEY_TOTAL,[4],0.8 g
same,LIVER,[2],13.5 g
same,LIVER,[3],16.1 g
same,LIVER,[4],16.8 g
same,A/G,[2],2.1
same,ALP,[2],1428.6 IU/L
same,ALT,[2],36.2 IU/L
same,AST,[2],67.6 IU/L
same,BUN,[2],18.8 mg/dL
same,CRE,[2],0.4 mg/dL
same,Ca,[2],11.3 mg/dL
same,Cl,[2],104.8 meq/L
same,DBIL,[2],0.01 mg/dL
same,GLC,[2],171.2 mg/dL
same,IP,[2],7.8 mg/dL
same,K,[2],4.3 meq/L
same,LDH,[2],92 IU/L
same,Na,[2],141.2 meq/L
same,PL,[2],134.8 mg/dL
same,RALB,[2],3.8 g/dL
same,TBIL,[2],0.032 mg/dL
same,TC,[2],71.8 mg/dL
same,TG,[2],55.2 mg/dL
same,TP,[2],5.7 g/dL
same,gamma-GTP,[2],0.4 IU/L
same,A/G,[3],2
same,ALP,[3],1500.8 IU/L
same,ALT,[3],35.2 IU/L
same,AST,[3],64.2 IU/L
same,BUN,[3],19 mg/dL
same,CRE,[3],0.4 mg/dL
same,Ca,[3],11.1 mg/dL
same,Cl,[3],106.4 meq/L
same,DBIL,[3],0.01 mg/dL
same,GLC,[3],188 mg/dL
same,IP,[3],7.3 mg/dL
same,K,[3],4.2 meq/L
same,LDH,[3],63 IU/L
same,Na,[3],143.8 meq/L
same,PL,[3],134.4 mg/dL
same,RALB,[3],3.8 g/dL
same,TBIL,[3],0.032 mg/dL
same,TC,[3],73.8 mg/dL
same,TG,[3],69.4 mg/dL
same,TP,[3],5.6 g/dL
same,gamma-GTP,[3],1 IU/L
same,A/G,[4],1.8
same,ALP,[4],1013.6 IU/L
same,ALT,[4],34 IU/L
same,AST,[4],61.2 IU/L
same,BUN,[4],17.8 mg/dL
same,CRE,[4],0.4 mg/dL
same,Ca,[4],10.6 mg/dL
same,Cl,[4],105.8 meq/L
same,DBIL,[4],0.01 mg/dL
same,GLC,[4],180.4 mg/dL
same,IP,[4],6.5 mg/dL
same,K,[4],4.2 meq/L
same,LDH,[4],87.2 IU/L
same,Na,[4],140.8 meq/L
same,PL,[4],122.8 mg/dL
same,RALB,[4],3.7 g/dL
same,TBIL,[4],0.032 mg/dL
same,TC,[4],64.6 mg/dL
same,TG,[4],65.2 mg/dL
same,TP,[4],5.8 g/dL
same,gamma-GTP,[4],0.4 IU/L
same,TERMINAL_BW,[5],241.9 g
same,APTT,[5],16.1 s
same,Bas,[5],0%
same,Eos,[5],1%
same,Fbg,[5],214 mg/dL
same,Hb,[5],12 g/dL
same,Ht,[5],36.4%
same,Lym,[5],73.4%
same,MCH,[5],21.1 pg
same,MCHC,[5],33%
same,MCV,[5],63.8 fL
same,Mono,[5],7.2%
same,Neu,[5],19.2%
same,PT,[5],11.7 s
same,Plat,[5],122 x10_4/uL
same,RBC,[5],570.8 x10_4/ul
same,Ret,[5],7.7%
same,WBC,[5],111.2 x10_2/uL
same,KIDNEY_TOTAL,[5],0.7 g
same,LIVER,[5],12.3 g
same,A/G,[5],2.5
same,ALP,[5],1258 IU/L
same,ALT,[5],44.4 IU/L
same,AST,[5],74.2 IU/L
same,BUN,[5],17.2 mg/dL
same,CRE,[5],0.2 mg/dL
same,Ca,[5],11.4 mg/dL
same,Cl,[5],106.2 meq/L
same,DBIL,[5],0.01 mg/dL
same,GLC,[5],179.8 mg/dL
same,IP,[5],8.1 mg/dL
same,K,[5],4.1 meq/L
same,LDH,[5],115.6 IU/L
same,Na,[5],141.8 meq/L
same,PL,[5],142.2 mg/dL
same,RALB,[5],3.8 g/dL
same,TBIL,[5],0.034 mg/dL
same,TC,[5],77.6 mg/dL
same,TG,[5],48 mg/dL
same,TP,[5],5.4 g/dL
same,gamma-GTP,[5],0 IU/L
same,TERMINAL_BW,[6],286.2 g
same,TERMINAL_BW,[7],351.2 g
same,TERMINAL_BW,[8],428.4 g
same,APTT,[6],16.1 s
same,Bas,[6],0%
same,Eos,[6],1.2%
same,Fbg,[6],195.8 mg/dL
same,Hb,[6],11.6 g/dL
same,Ht,[6],35.3%
same,Lym,[6],74.6%
same,MCH,[6],21.8 pg
same,MCHC,[6],32.8%
same,MCV,[6],66.4 fL
same,Mono,[6],9.2%
same,Neu,[6],15.4%
same,PT,[6],12.2 s
same,Plat,[6],111.4 x10_4/uL
same,RBC,[6],530.8 x10_4/ul
same,Ret,[6],7.7%
same,WBC,[6],99 x10_2/uL
same,APTT,[7],16.1 s
same,Bas,[7],0%
same,Eos,[7],1%
same,Fbg,[7],227 mg/dL
same,Hb,[7],12.8 g/dL
same,Ht,[7],38.9%
same,Lym,[7],70.8%
same,MCH,[7],20.8 pg
same,MCHC,[7],32.8%
same,MCV,[7],63.4 fL
same,Mono,[7],10.4%
same,Neu,[7],17.6%
same,PT,[7],12 s
same,Plat,[7],94.8 x10_4/uL
same,RBC,[7],614.6 x10_4/ul
same,Ret,[7],4.9%
same,WBC,[7],108.6 x10_2/uL
same,APTT,[8],16.1 s
same,Bas,[8],0%
same,Eos,[8],1.2%
same,Fbg,[8],220.8 mg/dL
same,Hb,[8],12.9 g/dL
same,Ht,[8],39.5%
same,Lym,[8],77.4%
same,MCH,[8],19.6 pg
same,MCHC,[8],32.6%
same,MCV,[8],60.2 fL
same,Mono,[8],7.8%
same,Neu,[8],13.4%
same,PT,[8],12.1 s
same,Plat,[8],87.6 x10_4/uL
same,RBC,[8],657.8 x10_4/ul
same,Ret,[8],3.2%
same,WBC,[8],104 x10_2/uL
same,KIDNEY_TOTAL,[6],0.8 g
same,KIDNEY_TOTAL,[7],0.9 g
same,KIDNEY_TOTAL,[8],0.9 g
same,LIVER,[6],14.7 g
same,LIVER,[7],16.3 g
same,LIVER,[8],18.6 g
same,A/G,[6],2.3
same,ALP,[6],1176 IU/L
same,ALT,[6],33 IU/L
same,AST,[6],67.6 IU/L
same,BUN,[6],20.8 mg/dL
same,CRE,[6],0.5 mg/dL
same,Ca,[6],11 mg/dL
same,Cl,[6],105.6 meq/L
same,DBIL,[6],0.014 mg/dL
same,GLC,[6],178.8 mg/dL
same,IP,[6],7.5 mg/dL
same,K,[6],4 meq/L
same,LDH,[6],77 IU/L
same,Na,[6],142 meq/L
same,PL,[6],135.4 mg/dL
same,RALB,[6],3.8 g/dL
same,TBIL,[6],0.034 mg/dL
same,TC,[6],73.8 mg/dL
same,TG,[6],43.4 mg/dL
same,TP,[6],5.4 g/dL
same,gamma-GTP,[6],0.4 IU/L
same,A/G,[7],2
same,ALP,[7],1156 IU/L
same,ALT,[7],36 IU/L
same,AST,[7],68.2 IU/L
same,BUN,[7],18.2 mg/dL
same,CRE,[7],0.4 mg/dL
same,Ca,[7],11 mg/dL
same,Cl,[7],107.6 meq/L
same,DBIL,[7],0.01 mg/dL
same,GLC,[7],190.4 mg/dL
same,IP,[7],7.4 mg/dL
same,K,[7],3.8 meq/L
same,LDH,[7],87.2 IU/L
same,Na,[7],145.8 meq/L
same,PL,[7],120 mg/dL
same,RALB,[7],3.7 g/dL
same,TBIL,[7],0.028 mg/dL
same,TC,[7],69.4 mg/dL
same,TG,[7],38.8 mg/dL
same,TP,[7],5.5 g/dL
same,gamma-GTP,[7],1 IU/L
same,A/G,[8],2.1
same,ALP,[8],951 IU/L
same,ALT,[8],29 IU/L
same,AST,[8],59.2 IU/L
same,BUN,[8],18.6 mg/dL
same,CRE,[8],0.4 mg/dL
same,Ca,[8],11 mg/dL
same,Cl,[8],105 meq/L
same,DBIL,[8],0.01 mg/dL
same,GLC,[8],179.6 mg/dL
same,IP,[8],6.2 mg/dL
same,K,[8],3.9 meq/L
same,LDH,[8],88.4 IU/L
same,Na,[8],141.2 meq/L
same,PL,[8],123.2 mg/dL
same,RALB,[8],3.9 g/dL
same,TBIL,[8],0.04 mg/dL
same,TC,[8],74.8 mg/dL
same,TG,[8],37.8 mg/dL
same,TP,[8],5.8 g/dL
same,gamma-GTP,[8],0 IU/L
